The Deep4Chem optical property database
Values belong to the compound of their own block, whether it stands above or below them.

Experiment: solvent given as SMILES

SMILES: CCCCCCCCCCC1(CCCCCCCCCC)c2cc(-c3nc4ccccc4s3)ccc2-c2ccc(N3C(=O)c4ccc5c6ccc7c8c(ccc(c9ccc(c4c59)C3=O)c86)C(=O)N(c3ccc4c(c3)C(CCCCCCCCCC)(CCCCCCCCCC)c3cc(-c5nc6ccccc6s5)ccc3-4)C7=O)cc21
absorption maximum (in ClCCl): 528 nm

SMILES: CCCCCCCCC1(CCCCCCCC)c2cc3c(cc2-c2sc(-c4ccc(/C=C5\SC(N6CCCCC6)=NC5=O)c5nsnc45)cc21)C(CCCCCCCC)(CCCCCCCC)c1cc(-c2ccc(/C=C4\SC(N5CCCCC5)=NC4=O)c4nsnc24)sc1-3
absorption maximum (in ClC(Cl)Cl): 606 nm

SMILES: CCC(CC)COC1=CC2=C3c4cc(OCC(CC)CC)c(-c5ccccc5)n4[B-](F)(F)[n+]4c3n(c3cc(C(C)(C)C)ccc34)[B-](F)(F)[N+]2=C1c1ccccc1
absorption maximum (in C1CCOC1): 702 nm | absorption maximum (in CC#N): 694 nm | absorption maximum (in ClCCl): 703 nm

SMILES: CCCCCCN1C(=O)C(c2ccc(-n3c4ccccc4c4ccccc43)cc2)=C(c2ccc(-n3c4ccccc4c4ccccc43)cc2)C1=O
absorption maximum (in ClC(Cl)Cl): 421 nm | absorption maximum (in c1ccc2c(c1)c1ccccc1n2-c1ccc(-c2ccc(-n3c4ccccc4c4ccccc43)cc2)cc1): 426 nm

SMILES: CN1c2ccccc2C(O)(c2ccccc2)c2cc([N+](=O)[O-])ccc21 (stereo not drawn)
absorption maximum (in C1CCOC1): 392.4 nm | absorption maximum (in CC#N): 396.9 nm | absorption maximum (in CCO): 393.7 nm | absorption maximum (in CO): 396 nm | absorption maximum (in CS(C)=O): 410 nm | absorption maximum (in Cc1ccccc1): 381.5 nm

SMILES: CC1=CC(C)=[N+]2C1=C(C1=C(C)C3=C(C)c4c(C)cc(C)n4[B-](F)(F)[N+]3=C1C)c1c(C)cc(C)n1[B-]2(F)F
absorption maximum (in ClC(Cl)Cl): 516 nm

SMILES: CC1(C)C(/C=C/C2=C(Cl)C(=C/C=C3/N(Cc4ccc(C(=O)O)cc4)c4ccccc4C3(C)C)/CCC2)=[N+](Cc2ccc(C(=O)O)cc2)c2ccccc21
absorption maximum (in CO): 786 nm

SMILES: CC(=O)c1nc(-c2ccc(C)cc2)oc1C
absorption maximum (in CC#N): 271 nm | absorption maximum (in CCCCCC): 272 nm | absorption maximum (in CCO): 271 nm | absorption maximum (in CCOC(C)=O): 273 nm | absorption maximum (in CCOCC): 271 nm | absorption maximum (in ClCCl): 271 nm

SMILES: CCN(CC)c1ccc2cc(-c3cn4ccccc4n3)c(=O)oc2c1
absorption maximum (in C1CCOC1): 408 nm | absorption maximum (in CC#N): 421 nm | absorption maximum (in CCO): 424 nm | absorption maximum (in CCOC(C)=O): 407 nm | absorption maximum (in CN(C)C=O): 425 nm | absorption maximum (in CO): 423 nm | absorption maximum (in CS(C)=O): 428 nm | absorption maximum (in Cc1ccccc1): 407 nm | absorption maximum (in ClC(Cl)Cl): 425 nm | absorption maximum (in ClCCl): 429 nm

SMILES: C1=C(c2ccc(-c3cccs3)s2)CCC(c2ccccc2)C1 (stereo not drawn)
absorption maximum (in C1CCOC1): 342 nm | absorption maximum (in CC#N): 341 nm | absorption maximum (in CCCCCC): 341 nm | absorption maximum (in CCO): 341 nm | absorption maximum (in OCCOCCO): 346 nm | absorption maximum (in c1ccncc1): 347 nm

SMILES: BrCCCCCCCCCCCCOc1cc2ccc3cccc4ccc(c1)c2c34
absorption maximum (in Cc1ccccc1): 384 nm

SMILES: CC(=O)O[B-]1(OC(C)=O)OC(/C=C/c2ccc(C)cc2)=CC(/C=C/c2ccc(C)cc2)=[O+]1
absorption maximum (in C1CCOC1): 434 nm | absorption maximum (in CC#N): 434 nm | absorption maximum (in CC(C)=O): 434 nm | absorption maximum (in CS(C)=O): 442 nm | absorption maximum (in Cc1ccccc1): 436 nm | absorption maximum (in ClC(Cl)Cl): 440 nm | absorption maximum (in ClCCl): 440 nm

SMILES: Cc1cc(C)cc(C)c1
absorption maximum (in C1CCCCC1): 261.57 nm

SMILES: CCN1\C(=C/C=C/C=C/C2=[N+](CC)c3ccc4cc(Br)ccc4c3C2(C)C)C(C)(C)c2c1ccc1cc(Br)ccc21
absorption maximum (in C1CCOC1): 683 nm | absorption maximum (in CC#N): 680 nm | absorption maximum (in CC(C)=O): 682 nm | absorption maximum (in CCO): 685 nm | absorption maximum (in CN(C)C=O): 686 nm | absorption maximum (in CO): 681 nm | absorption maximum (in CS(C)=O): 689 nm | absorption maximum (in ClCCl): 697 nm

SMILES: O=[N+]([O-])c1ccco1
absorption maximum (in CO): 302 nm | absorption maximum (in O): 313 nm

SMILES: N#CC(C#N)=C(/C=C/c1ccc(N(c2ccccc2)c2ccccc2)cc1)c1ccc2c3c(cccc13)CC2
absorption maximum (in C1CCOC1): 485 nm | absorption maximum (in CC#N): 486 nm | absorption maximum (in CC(C)=O): 485 nm | absorption maximum (in CCOC(C)=O): 482 nm | absorption maximum (in CN(C)C=O): 493 nm | absorption maximum (in CO): 490 nm | absorption maximum (in Cc1ccccc1): 493 nm | absorption maximum (in ClC(Cl)Cl): 502 nm

SMILES: Cn1c(=O)c(/N=N/c2cc(S(=O)(=O)O)ccc2S(=O)(=O)O)c(O)c2ccccc21
absorption maximum (in C1CCOC1): 428 nm | absorption maximum (in CC(C)=O): 421 nm | absorption maximum (in CCOC(C)=O): 423 nm | absorption maximum (in CO): 422 nm | absorption maximum (in CS(C)=O): 419 nm | absorption maximum (in Cc1ccccc1): 430 nm | absorption maximum (in ClCCl): 415 nm | absorption maximum (in O): 413 nm

SMILES: CC1(C)C(/C=C/C2=C(Cl)C(=C/C=C3/N(CCCCS(=O)(=O)[O-])c4ccc5ccccc5c4C3(C)C)/CCC2)=[N+](CCCCS(=O)(=O)[O-])c2ccc3ccccc3c21
absorption maximum (in CO): 820 nm

SMILES: Nc1nc2c(ncn2[C@H]2C[C@H](O)[C@@H](CO)O2)c(=O)[nH]1
absorption maximum (in O): 274 nm

SMILES: c1ccc(N(c2ccccc2)c2ccc3c4cccc5c(N(c6ccccc6)c6ccccc6)ccc(c6cccc2c63)c54)cc1
absorption maximum (in C1CCCCC1): 493 nm | absorption maximum (in C1CCOC1): 489 nm | absorption maximum (in CC#N): 483 nm | absorption maximum (in Cc1ccccc1): 492 nm | absorption maximum (in ClCCl): 490 nm

SMILES: CCN(CC)c1cccc(C=O)c1
absorption maximum (in CC#N): 380 nm | absorption maximum (in CC(C)O): 382 nm | absorption maximum (in CCCCCC): 367 nm | absorption maximum (in CCOC(C)=O): 376 nm | absorption maximum (in CO): 382 nm | absorption maximum (in CS(C)=O): 384 nm | absorption maximum (in Cc1ccccc1): 380 nm | absorption maximum (in ClCCl): 382 nm

SMILES: Cc1cc(-n2c3ccccc3c3cc4c(cc32)C2c3ccccc3C4c3ccccc32)c(C)cc1-c1nc(-c2ccccc2)nc(-c2ccccc2)n1
absorption maximum (in Cc1ccccc1): 345 nm

SMILES: CCC1(CC)c2cc(/C=C/c3cc(Br)c(/C=C/c4ccc5c(c4)C(CC)(CC)c4cc(N6c7ccccc7Sc7ccccc76)ccc4-5)cc3Br)ccc2-c2ccc(N3c4ccccc4Sc4ccccc43)cc21
absorption maximum (in C1CCOC1): 439.91 nm | absorption maximum (in CC#N): 435.81 nm | absorption maximum (in CCCCCC): 433.42 nm | absorption maximum (in Cc1ccccc1): 439.91 nm | absorption maximum (in ClCCl): 426 nm

SMILES: CCN1c2ccc(/C=N/Nc3ccccn3)cc2Sc2cc(-c3ccc(OC)cc3)ccc21
absorption maximum (in C1CCOC1): 381 nm | absorption maximum (in CS(C)=O): 386 nm | absorption maximum (in Cc1ccccc1): 380 nm | absorption maximum (in ClCCl): 383 nm

SMILES: CC(=O)[B-]1(C(C)=O)OC(C)=CC(c2ccc3ccccc3c2)=[O+]1
absorption maximum (in CC#N): 380 nm | absorption maximum (in ClC(Cl)(Cl)Cl): 380 nm

SMILES: CC(=O)c1ccc2ccc3cccc4ccc1c2c34
absorption maximum (in C1CCOC1): 384 nm | absorption maximum (in CC#N): 382 nm | absorption maximum (in CCCCCC): 384 nm | absorption maximum (in CCO): 383 nm | absorption maximum (in CN(C)C=O): 384 nm | absorption maximum (in CO): 385 nm | absorption maximum (in Cc1ccccc1): 387 nm | absorption maximum (in ClCCl): 385 nm

Results, then the compound that gave them:

absorption maximum (in c1ccccc1): 370 nm
SMILES: Cc1nc2c(ccc3ccc(O)cc32)oc1=O

absorption maximum (in C1CCCCC1): 391 nm
SMILES: COc1ccc2c3c(c4ccc(OC)cc4c2c1)C(C)(C)c1sccc1-3

absorption maximum (in ClC(Cl)Cl): 336 nm
SMILES: COc1ccc2cc(-c3ccccc3CC#N)c(=O)oc2c1

absorption maximum (in ClC(Cl)Cl): 505 nm
SMILES: CC1=CC(C)=[N+]2C1=C(c1ccc(I)cc1)c1c(C)cc(C)n1[B-]2(Oc1ccc([N+](=O)[O-])cc1)Oc1ccc([N+](=O)[O-])cc1

absorption maximum (in ClC(Cl)Cl): 505 nm
SMILES: CCO[B-]1(OCC)n2c(C)cc(C)c2C(c2ccc(I)cc2)=C2C(C)=CC(C)=[N+]21

absorption maximum (in C1CCOC1): 393 nm | absorption maximum (in CC#N): 391 nm | absorption maximum (in CS(C)=O): 400 nm | absorption maximum (in ClCCl): 394 nm
SMILES: C(=C\c1cnccn1)/c1ccc(N(c2ccccc2)c2ccccc2)cc1

absorption maximum (in ClCCl): 307 nm
SMILES: c1ccc2c(-c3cc4c(ccc5sccc54)s3)cccc2c1

absorption maximum (in ClC(Cl)Cl): 438 nm
SMILES: F[B-]1(F)OC(c2ccc(N3CCCC3)cc2)=Cc2cccc[n+]21

absorption maximum (in ClCCl): 408 nm
SMILES: C[Si]1(C)c2cc(-c3cccs3)ccc2C=Cc2ccc(-c3cccs3)cc21

absorption maximum (in CN(C)C=O): 310 nm
SMILES: Cc1nc2cccc(-c3nc4ccc(Cl)cc4o3)c2c(=O)[nH]1

absorption maximum (in ClCCl): 427 nm | absorption maximum (in O): 416 nm
SMILES: N#CC(C#N)=Cc1ccc(-c2ccc(O)c(-c3nc4ccccc4s3)c2)s1

absorption maximum (in CO): 278 nm
SMILES: N#Cc1c(-n2nnc3ccccc32)n([C@H]2C[C@H](O)[C@@H](CO)O2)c2ncnc(N)c12

absorption maximum (in ClCCl): 322 nm
SMILES: COc1ccc(-c2cnc(-c3ccccc3)o2)cc1OC

absorption maximum (in C1CCCCC1): 323 nm | absorption maximum (in CC#N): 313 nm | absorption maximum (in CO): 309 nm | absorption maximum (in ClC(Cl)Cl): 326 nm
SMILES: CN(C)c1ccc(-c2nc(C#N)c(C#N)n2C)cc1

absorption maximum (in CC#N): 388 nm
SMILES: Cc1ccc2nc3[nH]c(=O)[nH]c(=O)c3nc2c1C

absorption maximum (in C1CCCCC1): 355 nm | absorption maximum (in C1CCOC1): 363 nm | absorption maximum (in C1COCCO1): 361 nm | absorption maximum (in CC#N): 357 nm | absorption maximum (in CC(C)(C)O): 368 nm | absorption maximum (in CC(C)O): 367 nm | absorption maximum (in CCCCCC): 353 nm | absorption maximum (in CCCCO): 367 nm | absorption maximum (in CCO): 364 nm | absorption maximum (in CCOC(C)=O): 347 nm | absorption maximum (in CN(C)C=O): 364 nm | absorption maximum (in CO): 361 nm | absorption maximum (in CS(C)=O): 366 nm | absorption maximum (in ClC(Cl)Cl): 344 nm | absorption maximum (in ClCCl): 343 nm | absorption maximum (in O): 358 nm | absorption maximum (in OCCO): 363 nm
SMILES: Cc1cc(O)c(C(C)C)cc1/N=C/c1ccc(C(F)(F)F)cc1

absorption maximum (in ClCCl): 354 nm
SMILES: CN1CCN(c2cccc(/C=C/c3ncc(-c4ccc(OCc5ccccc5)c(OCc5ccccc5)c4)o3)c2)CC1

absorption maximum (in CCO): 514 nm
SMILES: Nc1ccc2c(-c3ccc(Br)cc3)c3ccc(=[NH2+])cc-3oc2c1

absorption maximum (in ClCCl): 617 nm
SMILES: COc1ccccc1C1=[N+]2C(=C(c3ccccc3)c3c4ccccc4c(-c4ccccc4OC)n3[B-]2(F)F)c2ccccc21

absorption maximum (in C1CCOC1): 341 nm
SMILES: c1ccc(-c2ccc(-c3ccccc3)s2)cc1

absorption maximum (in CC1CCCCC1): 323 nm | absorption maximum (in CC#N): 306 nm | absorption maximum (in CO): 306 nm
SMILES: COC(=O)C(NC(=O)OC(C)(C)C)c1ccc2oc(-c3ccc(OC(=O)c4ccccc4)cc3OC(=O)c3ccccc3)nc2c1 (stereo not drawn)
